# Data published in PMC549046 (Comparative Hepatology, 2005).
# “And” between values parts separate entries of the source, which are not always exact repeats. Equal entries are not always repeated. “Also recorded” adds a separate entry of the source. Where two headings read alike, the source gives them in different places. Marks after values point to notes of the source that are not given here.
# Legend:
# [1] = tested on: 11-keto-testosterone; test: Plasma 11-keto-testosterone analysis (EIA); type: in vivo, Atlantic cod (Gadus morhua); conditions: i.p., 5 days; for Effect on 11-keto-testosterone plasma levels: compared to vehicle or single compounds, in words; for 11-Keto-Testosterone plasma level: mean (SD), n = 6–8
# Experimental: (§1) Ethical approval licence number of ILAB Bergen: 119. Experiment no. 0204.
# (§2) Plasma levels of 17β-estradiol and testosterone were determined using competitive EIA kits from Cayman Chemical (Ann Arbor, MI, USA). Plasma levels of 11-keto-testosterone were analyzed using a competitive EIA kit, from Biosense Laboratories AS (Bergen, Norway). Plasma from each fish was concentrated (2:1) by extraction once with six volumes diethyl ether and 50 μl was analyzed and compared to purified standard substances. The signals were detected at A405 after 40 min (17β-estradiol), 60 min (testosterone) or 80 min (11-keto-testosterone) incubation with substrate solution, using a VICTOR™ 1420 Multilabel Counter.
# [2] = tested on: Hepatic Microsomal CYP3A activity; test: In vitro inhibition of CYP3A-mediated BFCOD activity in pooled liver microsomes; conditions: for Type of inhibition of CYP3A (BFCOD) activity: cod liver microsomes, Dixon plots
# Experimental: (§3) For in vitro inhibition studies, feral Atlantic cod of both sexes were caught off the West coast of Sweden and placed in concrete basins provided with recirculating aerated seawater at 10 ± 2°C and a salinity of 3.0% and alternative light/dark photoperiods of 12 hours. Prior to sampling, the animals were starved and acclimated to these conditions for three weeks. Eight fish were injected i.p. with β-naphthoflavone (BNF), 50 mg/kg b.w. dissolved in peanut oil (5.0 mg/ml). The fish were placed in a 100 l glass aquarium provided with aerated seawater (above) and 30% of the water volume was replaced each day. To eliminate visual stress, the sides of the aquaria were covered with black plastic sheets. After 3 days exposure, the fish were sacrificed. Livers were quickly dissected out and placed in ice-cold homogenization buffer. Livers were pooled from twenty untreated Atlantic cod and from eight BNF treated Atlantic cod, respectively. Microsomal fractions were isolated (above) and stored in aliquots at -80°C. Ethical approval from the Ethical committee of Göteborg license number (99–2003).
# (§4) The CYP1A activity was determined as EROD activity, using resorufin as standard in a SpectraFluor plate reader according to the protocol provided by Nilsen et al.. The CYP3A catalytic activity was measured as BFCOD activity, using HFC as standard. The BFC assay was performed based on a published protocol by Miller et al. and optimized for rainbow trout liver microsomes (T. Hegelund and M. Celander, unpublished data). The reaction mixture consisted of 200 μM BFC, bovine serum albumin (1.6 mg/ml), 2 μM NADPH and 10 μl liver microsomes in a total volume of 200 μl in 0.2 M potassium phosphate buffer pH 7.4 in a 96-multiwell plate using a VICTOR™ 1420 Multilabel Counter from Wallac Sverige AB (Upplands Väsby, Sweden).
# (§5) In vitro inhibition studies were carried out in 96-multiwell plates using a VICTOR™ 1420 Multilabel Counter. […] The substances were dissolved in DMSO and diluted with ethanol. The final concentrations never exceeded 0.01% (v/v) DMSO and 0.001% ethanol (v/v). For CYP1A and CYP3A inhibition studies, pooled liver microsomes from BNF-treated and from untreated Atlantic cod, respectively, were used.
# [3] = tested on: CYP3A; test: in vitro; conditions: both, Atlantic cod (Gadus morhua)
# Experimental: as §3, §4, §5
# [4] = tested on: CYP3A; test: CYP3A 2D gel electrophoresis immunoblot of pooled liver microsomes from treated fish
# Experimental: (§6) Hatchery reared juvenile Atlantic cod of both sexes with an average body weight (b.w.) around 400 g were supplied by Sekkingstad, Preserving AS, Hordaland, Norway. The fish were kept in 0.5 m^3 indoor glass fibre tanks, at Industrial Laboratory (ILAB), Bergen High Technology Centre (Bergen, Norway), provided with continuously flowing seawater at a temperature of 8 ± 0.5°C and a salinity of 3.4%. Throughout the experimental period, the fish were subjected to continuous 24 h artificial light (the regime the farm used for optimal fish growth). The fish were acclimated to these conditions for five days prior to the experimental period. […] Control fish were injected with 5 ml peanut oil/kg b.w. (vehicle). There were eight to nine fish in each treatment group. When designing the experiment, we could only test one combination due to limited fish numbers.
# After five days exposure, the fish were sacrificed by a sharp blow to the head. Blood samples were collected from the dorsal vein using a heparinized syringe and the liver was quickly dissected out and placed in ice-cold homogenization buffer (0.1 M sodium phosphate buffer pH 7.4, containing 0.15 M KCl, 1 mM EDTA and 1 mM DTT). Liver microsomes were prepared according to the published protocol by Goksøyr, and stored at -80°C. Total microsomal protein content was measured according to a published method by Bradford, using bovine serum albumin as standard, and a SpectraFluor spectrophotometer from Tecan (Grödig/Salzburg, Austria). Blood plasma was isolated by centrifugation at 5,000 g for 10 min at room temperature and stored at -80°C. Ethical approval licence number of ILAB Bergen: 119. Experiment no. 0204.
# [5] = tested on: testosterone; test: Plasma testosterone analysis (EIA); type: in vivo, Atlantic cod (Gadus morhua); conditions: i.p., 5 days
# Experimental: as §6
# After five days exposure, the fish were sacrificed by a sharp blow to the head. Blood samples were collected from the dorsal vein using a heparinized syringe and the liver was quickly dissected out and placed in ice-cold homogenization buffer (0.1 M sodium phosphate buffer pH 7.4, containing 0.15 M KCl, 1 mM EDTA and 1 mM DTT). […] Total microsomal protein content was measured according to a published method by Bradford, using bovine serum albumin as standard, and a SpectraFluor spectrophotometer from Tecan (Grödig/Salzburg, Austria). […]
# [6] = tested on: 17β-estradiol; test: Plasma 17β-estradiol analysis (EIA); type: in vivo, Atlantic cod (Gadus morhua); conditions: i.p., 5 days; for Effect on 17β-estradiol plasma levels: compared to vehicle or single compounds, in words; for 17β-Estradiol plasma level: mean (SD), n = 8
# Experimental: as §1, §2
# [7] = tested on: vitellogenin; test: Plasma vitellogenin analysis (ELISA); type: in vivo, Atlantic cod (Gadus morhua); conditions: i.p., 5 days; for Effect on plasma vitellogenin: in words; for Vitellogenin plasma level: mean (SD), n = 7–8
# Experimental: as §1
# Plasma levels of vitellogenin protein were determined using a non-competitive sandwich ELISA kit and employing rabbit PAb against Atlantic cod vitellogenin from Biosense Laboratories AS (Bergen, Norway). Each plasma sample was diluted (1:20, 1:15,000 and 1:50,000) and 100 μl was analyzed and compared to purified Atlantic cod vitellogenin protein standards (ranging between 0.12 and 2,000 ng/ml). The signal was detected at A492 after 15 min incubation with substrate solution, using a VICTOR™ 1420 Multilabel Counter.
# [8] = molecular target: T1, CYP1A (Gadus morhua, UniProt A0ACE1MZ74); test: In vitro inhibition of CYP1A-mediated EROD activity in pooled liver microsomes; conditions: both, Atlantic cod (Gadus morhua); for Ki: hepatic microsomal CYP1A (EROD) activity
# T1 sequence (A0ACE1MZ74 1-519): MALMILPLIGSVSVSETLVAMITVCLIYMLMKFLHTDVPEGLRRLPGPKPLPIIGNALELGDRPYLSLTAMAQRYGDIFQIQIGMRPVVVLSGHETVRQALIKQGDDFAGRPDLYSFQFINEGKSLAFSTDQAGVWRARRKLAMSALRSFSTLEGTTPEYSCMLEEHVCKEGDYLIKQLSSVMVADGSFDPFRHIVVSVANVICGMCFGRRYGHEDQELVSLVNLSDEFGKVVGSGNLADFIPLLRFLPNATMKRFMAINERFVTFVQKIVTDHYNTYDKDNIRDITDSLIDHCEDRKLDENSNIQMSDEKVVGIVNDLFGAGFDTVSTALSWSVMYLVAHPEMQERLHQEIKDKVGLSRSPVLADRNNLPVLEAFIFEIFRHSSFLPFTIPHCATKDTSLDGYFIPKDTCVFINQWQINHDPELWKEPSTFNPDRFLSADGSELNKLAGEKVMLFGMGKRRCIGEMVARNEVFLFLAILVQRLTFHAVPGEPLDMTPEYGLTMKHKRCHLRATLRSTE
# Experimental: as §3, §4, §5
# [9] = molecular target: T2, Hepatic Microsomal CYP1A activity (Gadus morhua, UniProt A0ACE1MZ74); test: as above; conditions: for Type of inhibition of CYP1A (EROD) activity: cod liver microsomes, Dixon plots
# T2 sequence (A0ACE1MZ74 1-519): T1 sequence (A0ACE1MZ74 1-519)
# Experimental: as §3, §4, §5
# [10] = tested on: hepatic BFCOD activities; conditions: ref [13],[22]; read-out: IC50, hepatic BFCOD activity in killifish; cited from earlier work
# [11] = tested on: Hepatic Microsomal CYP3A activity; design: method as in PMID 15084407; conditions: pooled cod liver microsomes; substrate BFC; published earlier, ref [22]; read-out: IC50, hepatic microsomal CYP3A (BFCOD) activity; cited from earlier work
# [12] = tested on: CYP3A; test: In vivo hepatic CYP3A protein expression (western blot); conditions: i.p., 5 days, KC 12, NP 25, KC+NP 12+25 mg/kg
# Experimental: as §6, with “There were eight to nine fish in each treatment group. When designing the experiment, we could only test one combination due to limited fish numbers.” left out
# (§7) After five days exposure, the fish were sacrificed by a sharp blow to the head. […] Total microsomal protein content was measured according to a published method by Bradford, using bovine serum albumin as standard, and a SpectraFluor spectrophotometer from Tecan (Grödig/Salzburg, Austria). […]
# (§8) Western blot analyses of 40 μg hepatic microsomal protein were carried out using enhanced chemoluminescence (ECL), based on the protocol previously described and PAb raised against rainbow trout CYP1A and CYP3A [41, 55, 56]. The intensity of each protein band was determined by densitometry on scanned fluorograms using Labview 7.0 from National Instruments (Austin, TX, USA).
# [13] = tested on: hepatic BFCOD activities; conditions: ref [13],[22]; read-out: IC50, hepatic BFCOD activity in rainbow trout; cited from earlier work
# [14] = tested on: CYP3A; test: In vitro pre-incubation of liver microsomes followed by CYP3A western blot; conditions: pooled cod liver microsomes pre-incubated 10, 30, 60 min
# Experimental: The CYP3A western blot analysis was performed as described above.
# [15] = tested on: CYP1A; test: In vivo hepatic CYP1A enzyme (EROD) activity after i.p. exposure; conditions: 5 days, NP 25 mg/kg, ethynylestradiol 5 mg/kg
# Experimental: as §6, §7
# The CYP1A activity was determined as EROD activity, using resorufin as standard in a SpectraFluor plate reader according to the protocol provided by Nilsen et al.. The CYP3A catalytic activity was measured as BFCOD activity, using HFC as standard. […]
# [16] = tested on: CYP1A; test: In vivo hepatic CYP1A protein expression (western blot); conditions: i.p., 5 days, NP 25 mg/kg, ethynylestradiol 5 mg/kg
# Experimental: as §6, with “There were eight to nine fish in each treatment group. When designing the experiment, we could only test one combination due to limited fish numbers.” left out
# as §7, §8
# [17] = molecular target: T3, cDNA Expressed Human CYP3A4 (Homo sapiens, UniProt P08684); test: Inhibition of BFCOD activity in cDNA expressed human CYP3A4 baculovirus supersomes; type: biochemical; conditions: substrate BFC
# T3 construct: purchased BD Biosciences Company, Gentest (Woburn, MA, USA); host or cells: baculovirus expression system (supersomes)
# T3 sequence (P08684 whole entry): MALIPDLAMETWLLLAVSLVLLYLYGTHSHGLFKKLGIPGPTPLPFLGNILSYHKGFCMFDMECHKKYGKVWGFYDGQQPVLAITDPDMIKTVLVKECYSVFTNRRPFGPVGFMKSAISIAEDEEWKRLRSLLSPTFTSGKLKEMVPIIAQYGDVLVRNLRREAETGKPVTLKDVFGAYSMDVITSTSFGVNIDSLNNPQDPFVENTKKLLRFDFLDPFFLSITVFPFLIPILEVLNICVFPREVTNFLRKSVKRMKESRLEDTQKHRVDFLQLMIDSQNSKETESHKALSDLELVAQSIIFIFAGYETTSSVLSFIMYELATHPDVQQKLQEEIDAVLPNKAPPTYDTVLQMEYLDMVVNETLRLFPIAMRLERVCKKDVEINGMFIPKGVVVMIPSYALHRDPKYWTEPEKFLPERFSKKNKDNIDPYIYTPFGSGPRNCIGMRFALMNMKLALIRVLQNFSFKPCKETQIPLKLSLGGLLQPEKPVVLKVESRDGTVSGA
# [18] = no [S] level stated, Dixon plot
# [19] = 2D gel immunoblot, pooled liver microsomes of 8–9 treated fish
SMILES,Effect on 11-keto-testosterone plasma levels [1],11-Keto-Testosterone plasma level [1],Type of inhibition of CYP3A (BFCOD) activity [2],"IC50 ([3]; microsomes, pH 7.4) [µM]",Effect on 17β-estradiol plasma levels [6],17β-Estradiol plasma level [6],Effect on plasma vitellogenin [7],Vitellogenin plasma level [7],IC50 [8] [µM],"Ki [8, 18] [µM]",Type of inhibition of CYP1A (EROD) activity [9],"Induction of the more basic CYP3A-immunoreactive isoform (pI around 5.1) [4, 19]",Effect on CYP3A protein expression [12],further results
"C#C[C@]1(O)CC[C@H]2[C@@H]3CCc4cc(O)ccc4[C@H]3CC[C@@]21C [ethynylestradiol, 17α-ethynylestradiol]",no statistically significant effect,35 (23) pg/ml plasma,uncompetitive inhibitor,40,no statistically significant effect,100 (69) pg/ml plasma,induction,"4,350 (1,463) ^a μg/ml plasma",20,5.4 to 10.3,non-competitive inhibitor,–,–,"Ki ([3]; pooled liver microsomes from untreated Atlantic cod, pH 7.4, probe BFC): 54 to 95 µM; Ki ([3]; pooled liver microsomes from untreated Atlantic cod, pH 7.4, probe BFC (high [S])): 95 µM; Ki ([3]; pooled liver microsomes from untreated Atlantic cod, pH 7.4, probe BFC (low [S])): 54 µM; Induction of the more basic CYP3A-immunoreactive isoform (pI around 5.1) ([4]; in vivo): did not induce; Effect on testosterone plasma levels ([5]; compared to vehicle or single compounds, in words): no statistically significant effect; Testosterone plasma level ([5]; mean (SD), n = 7–8): 90 (40) pg/ml plasma; Ki ([8]; high [S], high [S] 7-ethoxyresorufin, one representative Dixon plot): 10.3 µM; Ki ([8]; low [S], low [S] 7-ethoxyresorufin, one representative Dixon plot): 5.4 µM"
CC(=O)N1CCN(c2ccc(OCC3COC(Cn4ccnc4)(c4ccc(Cl)cc4Cl)O3)cc2)CC1 (stereo not shown) [ketoconazole],–,71 (46) pg/ml plasma,non-competitive inhibitor,–,–,60 (26) pg/ml plasma,–,0.6 (0.9) μg/ml plasma,–,–,–,inducible; also recorded: induced,no effect,"Ki, hepatic microsomal CYP3A (BFCOD) activity [2, 18]: sub-μM range; Ki ([3]; microsomes, pH 7.4): […]; IC50 [10]: 0.01 µM; IC50 [11]: 0.3 µM; IC50 [13]: 0.1 µM; Effect of pre-incubation on hepatic microsomal CYP3A protein levels [14]: no effects"
"CCCCCCCCCc1ccc(O)cc1 [nonylphenol, 4-nonylphenol]",no statistically significant effect,42 (67) pg/ml plasma,–,160,no statistically significant effect,76 (52) pg/ml plasma,induction,266 (199) ^a μg/ml plasma,5.2,~3.5,non-competitively inhibited,did not induce,no effect,"Decrease in CYP1A (EROD) activity compared to fish exposed to ketoconazole + nonylphenol [15]: 65%; Reduction of CYP1A (EROD) activity compared to vehicle treated fish [15]: 41% and 40%; Type of inhibition of CYP1A (EROD) activity ([9]; listed as Nonylphenol): non-competitive inhibitor; Ki ([9]; read-out: Ki, hepatic microsomal CYP1A (EROD) activity, no [S] level stated, Dixon plot, listed as Nonylphenol (NP)): 3.5 µM; Effect on CYP1A protein expression [16]: no effect; IC50 [17]: 35 µM"
